Where a name gives a salt, the structure may show the parent alone.
Assays:
[1] = target: Serotonin, 5HT2A (human) (Homo sapiens, UniProt P28223); experiment: Serotonin, 5HT2A (human) radioligand binding assay ([3H]-Ketanserin); details: human cortex
Experimental: The reactions were carried out in 50 mM TRIS-HCl (pH 7.6) at room temperature for 90 minutes. The reaction was terminated by rapid vacuum filtration onto glass fiber filters. Radioactivity trapped onto the filters was determined and compared to control values in order to ascertain any interactions of test compounds with the serotonin-5HT2A binding site (Literature Reference: Leysen, J. E. et al. Mol. Pharmacol. 1982, 21, 301-314; Martin, G. R. and Humphrey, P. P. A. Neuropharmacol. 1994, 33(3/4), 261-273.)
(§1) The radioligand binding assays for dopamine-D2S and serotonin-5HT1A were carried out at six different concentrations and the test concentrations were 1 nM, 5 nM, 10 nm 50 nM, 100 nM and 500 nM. The radioligand binding assays for serotonin-5HT2A were carried out at seven different concentrations and the test concentrations were 5 nM, 10 nM, 50 nM, 100 nM, 500 nM, 1 uM, and 300 uM.

[2] = target: T1, Serotonin, 5HT1A (human recombinant) (Homo sapiens, UniProt P08908); experiment: Serotonin, 5HT1A (human recombinant) radioligand binding assay ([3H]-8-OH-DPAT); details: human recombinant in HEK-293 cells
T1 construct: expressed in transfected cells; host or cells: HEK-293 cells
T1 sequence (P08908 1-422): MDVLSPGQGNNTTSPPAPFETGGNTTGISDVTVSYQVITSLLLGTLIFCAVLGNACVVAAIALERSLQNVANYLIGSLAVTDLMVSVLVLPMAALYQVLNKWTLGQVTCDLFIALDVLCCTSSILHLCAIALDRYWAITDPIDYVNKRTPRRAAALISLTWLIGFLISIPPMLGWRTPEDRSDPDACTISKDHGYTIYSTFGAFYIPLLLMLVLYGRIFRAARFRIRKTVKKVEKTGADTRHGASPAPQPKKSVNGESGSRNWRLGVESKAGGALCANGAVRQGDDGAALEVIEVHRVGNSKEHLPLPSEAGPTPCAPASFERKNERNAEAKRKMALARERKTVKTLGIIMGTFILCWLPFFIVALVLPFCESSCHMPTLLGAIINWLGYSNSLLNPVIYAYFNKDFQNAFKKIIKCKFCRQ
Experimental: The reactions were carried out in 50 mM TRIS-HCl (pH 7.4) containing 10 mM MgSO4, 0.5 mM EDTA and 0.1% Ascorbic acid at room temperature for 1 hour. The reaction was terminated by rapid vacuum filtration onto glass fiber filters. Radioactivity trapped onto the filters was determined and compared to control values in order to ascertain any interactions of test compounds with the cloned serotonin-5HT1A binding site (Literature Reference: Hoyer, D. et al. Eur. Journal Pharmacol. 1985, 118, 13-23; Schoeffter, P. and Hoyer, D. Naunyn-Schmiedeberg's Arch. Pharmac. 1989, 340, 135-138)
as §1

[3] = target: T2, Dopamine, D2S (human recombinant) (Homo sapiens, UniProt P14416); experiment: Dopamine, D2S (human recombinant) radioligand binding assay ([3H]Spiperone); details: human recombinant in CHO cells
T2 construct: expressed in transfected cells; host or cells: CHO cells
Experimental: The reactions were carried out in 50 mM TRIS-HCl (pH 7.4) containing 120 mM NaCl, 5 mM KCl, 5 mM MgCl2, 1 mM EDTA for 60 minutes at 25 C. The reaction was terminated by rapid vacuum filtration onto glass fiber filters. Radioactivity trapped onto the filters was determined and compared to control values in order to ascertain any interactions of test compounds with the cloned dopamine-D2 short binding site (Literature Reference: Jarvis, K. R. et al. Journal of Receptor Research 1993, 13(1-4), 573-590; Gundlach, A. L. et al. Life Sciences 1984, 35, 1981-1988.)
as §1

T2 sequence (P14416 1-414 isoform P14416-2): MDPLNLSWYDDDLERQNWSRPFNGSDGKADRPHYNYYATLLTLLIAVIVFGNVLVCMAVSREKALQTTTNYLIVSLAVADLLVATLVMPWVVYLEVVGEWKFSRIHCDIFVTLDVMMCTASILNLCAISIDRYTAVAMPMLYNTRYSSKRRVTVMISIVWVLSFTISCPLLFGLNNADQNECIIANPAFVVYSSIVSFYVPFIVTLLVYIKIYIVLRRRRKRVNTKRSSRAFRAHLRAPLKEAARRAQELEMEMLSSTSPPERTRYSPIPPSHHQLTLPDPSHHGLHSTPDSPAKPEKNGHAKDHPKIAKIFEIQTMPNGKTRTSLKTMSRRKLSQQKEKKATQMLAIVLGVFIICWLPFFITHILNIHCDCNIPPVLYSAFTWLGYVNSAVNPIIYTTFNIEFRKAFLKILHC
Sequence of Serotonin, 5HT2A (human) (P28223 whole entry): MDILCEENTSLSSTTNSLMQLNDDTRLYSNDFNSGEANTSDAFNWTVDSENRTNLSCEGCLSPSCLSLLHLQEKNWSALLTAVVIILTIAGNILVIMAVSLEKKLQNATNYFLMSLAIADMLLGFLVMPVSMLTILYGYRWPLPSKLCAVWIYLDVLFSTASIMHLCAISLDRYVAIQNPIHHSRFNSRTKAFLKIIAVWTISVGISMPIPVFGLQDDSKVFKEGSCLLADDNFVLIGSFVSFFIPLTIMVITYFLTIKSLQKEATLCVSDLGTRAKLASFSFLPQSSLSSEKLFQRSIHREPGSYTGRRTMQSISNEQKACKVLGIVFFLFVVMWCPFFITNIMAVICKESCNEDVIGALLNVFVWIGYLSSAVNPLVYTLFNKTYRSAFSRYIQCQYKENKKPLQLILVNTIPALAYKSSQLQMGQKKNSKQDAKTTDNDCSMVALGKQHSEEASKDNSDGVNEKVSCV

Question: What does the source list for `O=C1CCc2ccc(C(=O)OCCCN3CCN(c4cccc(Cl)c4Cl)CC3)cc2N1` [Compound 24b, 3-(4-(2,3-Dichlorophenyl)piperazin-1-yl)propyl 2-oxo-1,2,3,4-tetrahydroquinoline-7-carboxylate hydrochloride]?
Answer: IC50 [1]: 253 nM; Ki [1]: 147 nM; IC50 [2]: 28 nM; Ki [2]: 16 nM; IC50 [3]: 72.9 nM; Ki [3]: 17 nM

Question: Which results are given for `O=C1CCc2ccc(COC(=O)CCCN3CCN(c4cccc(Cl)c4Cl)CC3)cc2N1` [Compound 39d, (2-Oxo-1,2,3,4-tetrahydroquinolin-7-yl)methyl 4-(4-(2,3-dichlorophenyl)piperazin-1-yl)butanoate]?
Answer: IC50 [1]: 313 nM; Ki [1]: 171 nM; IC50 [2]: 85 nM; Ki [2]: 48.5 nM; IC50 [3]: 54.7 nM; Ki [3]: 12.8 nM

Question: How did the IC50 [1] turn out when `CCOC(=O)CCCOc1ccccc1N1CCN(CCCCOc2ccc3c(c2)NC(=O)CC3)CC1` [Compound 9a, Ethyl 4-(2-(4-(4-(2-oxo-1,2,3,4-tetrahydroquinolin-7-yloxy)butyl)piperazin-1-yl)phenoxy)butanoat hydrochloride] was run?
Answer: The IC50 was 456 nM.

Question: What about the Ki [1] of the same compound?
Answer: Its Ki is 239 nM.

Question: What about the IC50 [2] of the same compound?
Answer: The IC50 was 6.61 nM.

Question: What about the Ki [2] of the same compound?
Answer: Its Ki is 3.93 nM.

Question: What about the IC50 [3] of the same compound?
Answer: The IC50 was 5.83 nM.

Question: And the Ki [3]?
Answer: Its Ki is 1.69 nM.
